From US20240270759A1, “Preparation of SHP2 phosphatase inhibitors and its applications” (Ya Therapeutics Inc, priority 2021, published 2024)
pIC50: −log10 of the molar value.

Molecular target: T1, SHP2 full-length protein (Homo sapiens, UniProt Q06124)
T1 construct: purchased BPS Bioscience #79330
T1 sequence (Q06124 1-593): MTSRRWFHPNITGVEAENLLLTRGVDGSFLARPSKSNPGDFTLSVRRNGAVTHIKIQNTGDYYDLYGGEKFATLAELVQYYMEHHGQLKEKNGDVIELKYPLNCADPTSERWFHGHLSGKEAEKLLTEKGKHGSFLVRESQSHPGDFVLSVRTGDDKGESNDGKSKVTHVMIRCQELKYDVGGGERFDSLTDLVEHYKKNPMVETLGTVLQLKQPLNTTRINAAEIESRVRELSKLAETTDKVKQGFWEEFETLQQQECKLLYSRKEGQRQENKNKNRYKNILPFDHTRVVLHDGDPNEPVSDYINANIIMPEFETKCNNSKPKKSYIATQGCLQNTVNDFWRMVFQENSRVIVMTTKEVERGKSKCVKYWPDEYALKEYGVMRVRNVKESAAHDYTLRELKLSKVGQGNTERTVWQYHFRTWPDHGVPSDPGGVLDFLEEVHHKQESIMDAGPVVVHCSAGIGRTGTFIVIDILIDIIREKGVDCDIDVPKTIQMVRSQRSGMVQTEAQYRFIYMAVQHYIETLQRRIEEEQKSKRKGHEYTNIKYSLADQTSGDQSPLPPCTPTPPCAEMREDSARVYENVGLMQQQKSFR
Test: SHP2 allosteric inhibition experiment (Homogeneous Full Length SHP-2 Assay Kit)
Type: biochemical
Settings: full-length SHP2 0.06 nM with SHP-2 activating peptide; ten-point, 1 μM to 0.05 nM; read-out: IC50 Values of Compounds Inhibiting SHP2
Description: The following further describes and explains the present invention in combination with test examples, but these examples are not meant to limit the scope of the present invention. SHP2 allosteric inhibition experiment
The purpose of this test is to measure the ability of the compounds to inhibit the allosteric activity of the SHP2 full-length protein. Experimental equipment: a centrifuge (5810R) is purchased from Eppendorf Company; pipettes are purchased from Eppendorf Company and Rainin Company, and microplate readers are purchased from BioTek Company of the United States, SynergyH1 multimode microplate reader.
Experimental method: Homogeneous Full Length SHP-2 Assay Kit (BPS Bioscience, #79330) is used to detect SHP2 activity in vitro. First, add 18 μL of Master Mix to 96-well low-adsorption microplate (NUNC, #267342), that is, 0.5 μL of SHP-2 activating Peptide and 5 mM DTT are included in the reaction buffer with a final concentration of 1×. After centrifugation, add 5 μL of the compound to be tested in DMSO (final DMSO content is 1% (V/V) in each well: dissolve the compound to be tested in DMSO to 1 mM, conduct triple dilution with a total of 10 concentration levels ranging from 1 μM to 0.05 nM in the reaction buffer. After diluting SHP2 in 1× reaction buffer to a final concentration of 0.06 nM, add it to the reaction microwell plate, 2 μL per well. Set a full activity control ([…]) and a full inhibition control (without SHP-2) on the reaction plate, and incubate the reaction mixture at room temperature for 60 minutes after centrifugation.
After incubation, add 25 μL of Substrate solution to each well, containing Substrate with a final concentration of 10 μM and DTT with a final concentration of 5 mM, and after centrifugation, continue to incubate at room temperature for 30 minutes. After the reaction, set the excitation wavelength at 340 nm, the emission wavelength at 455 nm, and the gain value to 75 on the Synergy H1 microplate reader (Biotek) for reading.
Take the full activity control and full inhibition control as the values of Max and Min, and calculate the percentage inhibition rate of the wells treated with the compound based on the positive control wells (DMSO control wells) and negative control wells (no kinase added) on the reaction plate, (inhibition rate percentage=100−[(test compound−Min average value)/(Max average value−Min average value)]×100%. IC50 values of test compounds are calculated by fitting percentage of inhibition and ten-point concentration data to a 4-parameter nonlinear logic formula using GraphPad prism.

Compound	pIC50
C[C@@H]1OCC2(CCN(c3ncc(Sc4cccc(-c5cncnc5)c4Cl)cn3)CC2)[C@@H]1N [Compound 115, (3S,4S)-8-(5-((2-chloro-3-(pyrimidine-5-yl)phenyl)mercapto)pyrimidine-2-yl)-3-methyl-2-oxa-8-azaspiro[4.5]decane-4-amine]	≥ 8.00
CCn1ccc(-c2cccc(Sc3cnc(N4CCC5(CC4)CO[C@@H](C)[C@H]5N)nc3)c2Cl)n1 [Compound 112, (3S,4S)-8-(5-((2-chloro-3-(1-ethyl-1H-pyrazole-3-yl)phenyl)mercapto)pyrimidine-2-yl)-3-methyl-2-oxa-8-azaspiro[4.5]decane-4-amine]	7.00 to 8.00
N[C@@H]1c2ccncc2CC12CCN(c1cnc3c(=O)n(-c4ccnc(NC5CC5)c4Cl)c(=O)[nH]c3n1)CC2 [Compound 24]	≥ 8.00
N-(3-((5-((3S,4S)-4-amino-3-methyl-2-oxa-8-azaspiro[4.5]decane-8-yl)pyridazine-3-yl) mercapto)-2-chlorophenyl)-2-hydroxy-4-oxa-6,7,8,9-tetrahydro-4H-pyridinyl[1,2-a]pyrimidine-3-carboxamide [Compound 136]	≥ 8.00
C[C@@H]1OCC2(CCN(c3ccc4nc(Sc5cccc(NC(=O)c6c(O)nc7n(c6=O)CCCC7)c5Cl)ncc4n3)CC2)[C@@H]1N [Compound 89, N-(3-((6-((3S,4S)-4-amino-3-methyl-2-oxa-8-azaspiro[4.5]decane-8-yl)pyridinyl[3,2-d]pyrimidine-2-yl)mercapto)-2-chlorophenyl)-2-hydroxy-4-oxo-6,7,8,9-tetrahydro-4H-pyridinyl[1,2-a]pyrimidine-3-carboxamide]	≥ 8.00
C[C@@H]1OCC2(CCN(c3ncc(Sc4cccc(NC(=O)c5c(O)nc6n(c5=O)CCCC6)c4Cl)cn3)CC2)[C@@H]1N [Compound 114, N-(3-((2-((3S,4S)-4-amino-3-methyl-2-oxa-8-azaspiro[4.5]decane-8-yl)pyrimidine-5-yl)mercapto)-2-chlorophenyl)-2-hydroxyl-4-oxo-6,7,8,9-tetrahydro-4H-pyridinyl[1,2-a]pyrimidine-3-carboxamide]	7.00 to 8.00
C[C@@H]1OCC2(CCN(c3ncc4nc(Sc5cccc(NC(=O)c6cnccn6)c5Cl)cnc4n3)CC2)[C@@H]1N [Compound 85, N-(3-((2-((3S,4S)-4-amino-3-methyl-2-oxa-8-azaspiro[4.5]decane-8-yl)pteridine-6-yl)mercapto)-2-chlorophenyl)pyrazine-2-carboxamide]	≥ 8.00

More lines, now with the values ahead:

pIC50	Compound
7.00 to 8.00	CC1(N)CCN(c2cnc3c(=O)n(-c4cccc(Cl)c4Cl)c(=O)[nH]c3n2)CC1 [Compound 11]
≥ 8.00	C[C@@H]1OCC2(CCN(c3ncc(Sc4cccc(-c5cnccn5)c4Cl)cn3)CC2)[C@@H]1N [Compound 116, (3S,4S)-8-(5-((2-chloro-3-(pyrazine-2-yl)phenyl)mercapto)pyrimidine-2-yl)-3-methyl-2-oxa-8-azaspiro[4.5]decane-4-amine]
7.00 to 8.00	C[C@@H]1OCC2(CCN(c3cnc(Sc4cccc(Nc5ncccn5)c4Cl)nc3)CC2)[C@@H]1N [Compound 108, (3S,4S)-8-(2-((2-chloro-3-(pyrimidine-2-amino)phenyl)mercapto)pyrimidine-5-yl)-3-methyl-2-oxa-8-azaspiro[4.5]decane-4-amine]
≥ 8.00	Nc1nccc(-n2c(=O)[nH]c3nc(N4CCC5(CC4)Cc4ccccc4[C@H]5N)cnc3c2=O)c1Cl [Compound 18, (S)-7-(1-amino-1,3-dihydrospiro[indene-2,4′-piperidine]-1′-yl)-3-(2-amino-3-chloropyridine-4-yl)pteridine-2,4(1H,3H)-dione]
≥ 8.00	CC(C)n1ccc(-c2cccc(Sc3ncc(N4CCC5(CC4)CO[C@@H](C)[C@H]5N)cn3)c2Cl)n1 [Compound 101, (3S,4S)-8-(2-((2-chloro-3-(1-isopropyl-1H-pyrazole-3-yl)phenyl)mercapto)pyrimidine-5-yl)-3-methyl-2-oxa-8-azaspiro[4.5]decane-4-amine]
